For 39 compounds, IC50 results are on record in patent US11186564B2, “Dual NAV1.2/5HT2a inhibitors for treating CNS disorders” (Sunovion Pharmaceuticals Inc., priority 2016, dated 2021).

A value given as a limit tells only on which side of the number the result lay.

The target of the assay is T1, recombinant human serotonin receptor 5-HT2A (Homo sapiens, UniProt P28223).
T1 construct: expressed in transfected cells; method B: loaded with Ca2+ dye
T1 sequence (P28223 whole entry): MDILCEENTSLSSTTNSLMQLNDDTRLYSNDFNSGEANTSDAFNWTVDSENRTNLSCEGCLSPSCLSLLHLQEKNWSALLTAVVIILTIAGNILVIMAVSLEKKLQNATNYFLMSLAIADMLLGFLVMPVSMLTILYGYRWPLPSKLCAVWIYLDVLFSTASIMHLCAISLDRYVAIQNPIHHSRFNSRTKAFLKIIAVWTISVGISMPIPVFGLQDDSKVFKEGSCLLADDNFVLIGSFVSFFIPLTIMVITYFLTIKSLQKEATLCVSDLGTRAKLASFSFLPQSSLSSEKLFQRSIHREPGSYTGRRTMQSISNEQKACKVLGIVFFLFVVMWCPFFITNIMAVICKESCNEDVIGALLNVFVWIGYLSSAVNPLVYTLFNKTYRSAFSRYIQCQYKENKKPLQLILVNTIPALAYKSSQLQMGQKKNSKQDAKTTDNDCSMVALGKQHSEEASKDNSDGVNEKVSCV
As to the kind of experiment: 5-HT2A antagonist Ca2+ assay in CHO-K1 cells (method A aequorin luminescence / method B FLIPR fluorescence). To be noted: antagonist mode vs EC80 of reference agonist, method A or B, read-out: 5HT2A IC50. It counts as cell-based. In a few lines: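 IC50 was obtained by nonlinear regression of percent inhibition of the EC80 agonist Ca2+ response in CHO-K1 cells stably expressing human 5-HT2A. The readout was aequorin luminescence with agonist injected 15 min after compound (A), or Ca2+-dye fluorescence on FLIPR with serotonin as agonist (B).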
The IC50 is the point on the concentration scale where inhibition reaches its midpoint. As to `O=C1c2ccccc2CCN1CCN1CC[C@@H](Oc2ccncc2)C1` [Example 29, (R)-2-(2-(3-(pyridin-4-yloxy)pyrrolidin-1-yl)ethyl)-3,4-dihydroisoquinolin-1(2H)-one], the IC50 is greater than 16700 nM.

Regarding `O[C@@H](COC1CCCCC1)CN1CCC[C@@H](Oc2ccc(F)cc2)C1` [Example 267, (R)-1-(cyclohexyloxy)-3-((R)-3-(4-fluorophenoxy)piperidin-1-yl)propan-2-ol], the IC50 was found to be 10400 nM.

Take `c1ccc2c(c1)CCC1(CCN(CC3CCc4cnccc43)CC1)O2` (stereo not drawn) [Example 408, 1′-((6,7-dihydro-5H-cyclopenta[c]pyridin-5-yl)methyl)spiro[chromane-2,4′-piperidine]]: the IC50 stood at 740 nM.

Turning to `COCc1cccc(OC2CCN(CC3CCOc4ccccc43)CC2)c1` (stereo not drawn) [Example 163, 1-(chroman-4-ylmethyl)-4-(3-(methoxymethyl)phenoxy)piperidine], the half-maximal inhibitory concentration (IC50) turned out to be 260 nM.

On to `COc1ccc2c(c1)C(CN1CCC(Oc3cccnc3)CC1)CC2` (stereo not drawn) [Example 109, 3-((1-((6-methoxy-2,3-dihydro-1H-inden-1-yl)methyl)piperidin-4-yl)oxy)pyridine], for which the IC50 amounted to 1920 nM.

For the compound `COc1cccc(O[C@@H]2CCN(CC(O)CO[C@H]3CCc4ccccc43)C2)c1` (stereo partly drawn) [Example 38, 1-(((S)-2,3-dihydro-1H-inden-1-yl)oxy)-3-((R)-3-(3-methoxyphenoxy)pyrrolidin-1-yl)propan-2-ol], the IC50 was 3170 nM.

On to `O=C1c2ccccc2CCN1CCN1CC[C@H](Oc2cccnc2)C1` [Example 24, (S)-2-(2-(3-(pyridin-3-yloxy)pyrrolidin-1-yl)ethyl)-3,4-dihydroisoquinolin-1(2H)-one], for which the IC50 was greater than 16700 nM.

Take `COc1ccc2c(c1)C(CN1CCC(Oc3cccc(C(N)=O)c3)CC1)CC2` (stereo not drawn) [Example 108, 3-((1-((6-methoxy-2,3-dihydro-1H-inden-1-yl)methyl)piperidin-4-yl)oxy)benzamide]: the IC50 turned out to be 740 nM.

In the case of `COc1ccccc1OC1CCN(CC2Cc3ccccc3C2)[C@@H](C)C1` (single isomer, unassigned) [Example 148], the IC50 amounted to 1440 nM.

Regarding `O[C@H](COC1CCCCC1)CN1[C@@H]2CC[C@H]1CN(c1nccs1)C2` [Example 292, (S)-1-(cyclohexyloxy)-3-((1R,5S)-3-(thiazol-2-yl)-3,8-diazabicyclo[3.2.1]octan-8-yl)propan-2-ol], the IC50 is greater than 10000 nM.

In the case of `O[C@@H](COC1CCCCC1)CN1C[C@@H]2C[C@H](C1)N(c1ccccc1)C2` [Example 332, (R)-1-(cyclohexyloxy)-3-((1S,5R)-6-phenyl-3,6-diazabicyclo[3.2.1]octan-3-yl)propan-2-ol], the IC50 was greater than 16700 nM.

For the compound `COc1cccc(O[C@@H]2CCN(CC(O)CO[C@@H]3CCc4ccccc43)C2)c1` (stereo partly drawn) [Example 40, 1-(((R)-2,3-dihydro-1H-inden-1-yl)oxy)-3-((R)-3-(3-methoxyphenoxy)pyrrolidin-1-yl)propan-2-ol], the IC50 came to 1600 nM.

Take `O=C1c2ccccc2CCN1CCN1CCC(Oc2ccncc2)CC1` [Example 199, 2-(2-(4-(pyridin-4-yloxy)piperidin-1-yl)ethyl)-3,4-dihydroisoquinolin-1(2H)-one]: the IC50 is greater than 8700 nM.

For the compound `Fc1ccc(O[C@@H]2CCN(CC3CCc4cnccc43)C2)cc1` (stereo partly drawn) [Example 1, 5-(((R)-3-(4-fluorophenoxy)pyrrolidin-1-yl)methyl)-6,7-dihydro-5H-cyclopenta[c]pyridine], the IC50 came out at 2300 nM.

Take `c1ccc2c(c1)CC1(CCN(CC3Cc4ccncc4C3)CC1)O2` (stereo not drawn) [Example 398, 1′-((6,7-dihydro-5H-cyclopenta[c]pyridin-6-yl)methyl)-3H-spiro[benzofuran-2,4′-piperidine]]: the half-maximal inhibitory concentration (IC50) amounted to 9650 nM.

Take `COc1ccccc1N1CCC2(CCN(CC3Cc4cccnc4C3)C2)C1` (stereo not drawn) [Example 338, 2-((6,7-dihydro-5H-cyclopenta[b]pyridin-6-yl)methyl)-7-(2-methoxyphenyl)-2,7-diazaspiro[4.4]nonane]: the IC50 is greater than 10000 nM.

Regarding `C[C@H]1C[C@]2(CCc3ccccc3O2)CCN1CCN1CCc2ccccc2C1=O` [Example 425, 2-(2-((2S,2′S)-2′-methylspiro[chromane-2,4′-piperidin]-1′-yl)ethyl)-3,4-dihydroisoquinolin-1(2H)-one], the IC50 came to 120 nM.

As for `COc1ccccc1O[C@H]1CCN(CC2Cc3ccccc3C2)[C@@H](C)C1` [Example 143, (2S,4S)-1-((2,3-dihydro-1H-inden-2-yl)methyl)-4-(2-methoxyphenoxy)-2-methylpiperidine], the IC50 came to 80 nM.

For `O[C@@H](COC1CCCCC1)CN1[C@@H]2CC[C@H]1CN(c1nccs1)C2` [Example 291, (R)-1-(cyclohexyloxy)-3-((1R,5S)-3-(thiazol-2-yl)-3,8-diazabicyclo[3.2.1]octan-8-yl)propan-2-ol], the half-inhibitory concentration (IC50) is greater than 10000 nM.

With `O[C@H](COC1CCCCC1)CN1CCC[C@@H](Oc2ccc(F)cc2)C1` [Example 266, (S)-1-(cyclohexyloxy)-3-((R)-3-(4-fluorophenoxy)piperidin-1-yl)propan-2-ol], the IC50 was greater than 12900 nM.

Take `O=C1c2ccccc2CCN1CCN1CC[C@@H](Oc2cccnc2)C1` [Example 23, (R)-2-(2-(3-(pyridin-3-yloxy)pyrrolidin-1-yl)ethyl)-3,4-dihydroisoquinolin-1(2H)-one]: the IC50 is greater than 16700 nM.

For `COCc1cccc(OC2CCN(CC3CCc4ccc(OC)cc43)CC2)c1` (stereo not drawn) [Example 111, 1-((6-methoxy-2,3-dihydro-1H-inden-1-yl)methyl)-4-(3-(methoxymethyl)phenoxy)piperidine], the IC50 was determined as 210 nM.

For the compound `Fc1ccc(N2CCC3(CCN(CC4Cc5ccncc5C4)C3)C2)cc1` (stereo not drawn) [Example 341, 2-((6,7-dihydro-5H-cyclopenta[c]pyridin-6-yl)methyl)-7-(4-fluorophenyl)-2,7-diazaspiro[4.4]nonane], the IC50 amounted to 3120 nM.

Turning to `C[C@H]1C[C@@]2(CCc3ccccc3O2)CCN1CCN1CCc2ccccc2C1=O` [Example 424, 2-(2-((2R,2′S)-2′-methylspiro[chromane-2,4′-piperidin]-1′-yl)ethyl)-3,4-dihydroisoquinolin-1(2H)-one], the IC50 came out at 50 nM.

As for `COc1ccccc1O[C@@H]1CCN(CCN2CCc3ccccc3C2=O)[C@H]1C` [Example 17, 2-(2-((2S,3R)-3-(2-methoxyphenoxy)-2-methylpyrrolidin-1-yl)ethyl)-3,4-dihydroisoquinolin-1(2H)-one], the IC50 was 400 nM.

Consider `Fc1ccc(O[C@H]2CCN(CC3CCc4ncccc43)C2)cc1` (stereo partly drawn) [Example 4, 5-(((S)-3-(4-fluorophenoxy)pyrrolidin-1-yl)methyl)-6,7-dihydro-5H-cyclopenta[b]pyridine], for which the IC50 was determined as 1450 nM.

Take `O=C1c2ccccc2CCN1CCN1CC[C@@H](Oc2ccccn2)C1` [Example 15, (R)-2-(2-(3-(pyridin-2-yloxy)pyrrolidin-1-yl)ethyl)-3,4-dihydroisoquinolin-1(2H)-one]: the IC50 was greater than 16700 nM.

Turning to `OC(COC1CCCCC1)CN1CCC2(CCCN2c2ccccc2)C1` (stereo not drawn) [Example 348, 1-(cyclohexyloxy)-3-(1-phenyl-1,7-diazaspiro[4.4]nonan-7-yl)propan-2-ol], the IC50 was 7340 nM.

Regarding `Fc1ccc(O[C@H]2CCN(CC3CCc4cnccc43)C2)cc1` (stereo partly drawn) [Example 2, 5-(((S)-3-(4-fluorophenoxy)pyrrolidin-1-yl)methyl)-6,7-dihydro-5H-cyclopenta[c]pyridine], the IC50 came to 1250 nM.

For the compound `O[C@@H](COC1CCCCC1)CN1CC2(CC(Oc3ccccc3)CO2)C1` (stereo partly drawn) [Example 372, (2R)-1-(cyclohexyloxy)-3-(7-phenoxy-5-oxa-2-azaspiro[3.4]octan-2-yl)propan-2-ol], the IC50 worked out at 90 nM.

Turning to `OC(CO[C@H]1CCc2ccccc21)CN1CC[C@@H](Oc2cccc(F)c2)C1` (stereo partly drawn) [Example 34, 1-(((S)-2,3-dihydro-1H-inden-1-yl)oxy)-3-((R)-3-(3-fluorophenoxy)pyrrolidin-1-yl)propan-2-ol], the IC50 turned out to be 4660 nM.

For `Fc1ccc(O[C@@H]2CCN(CC3CCc4cccnc43)C2)cc1` (stereo partly drawn) [Example 7, 7-(((R)-3-(4-fluorophenoxy)pyrrolidin-1-yl)methyl)-6,7-dihydro-5H-cyclopenta[b]pyridine], the IC50 was found to be 1010 nM.

Take `COc1ccc(O[C@@H]2CCN(CCN3CCc4ccccc4C3=O)C2)cc1` [Example 27, (R)-2-(2-(3-(4-methoxyphenoxy)pyrrolidin-1-yl)ethyl)-3,4-dihydroisoquinolin-1(2H)-one]: the IC50 was found to be 2800 nM.

For the compound `O=C1c2ccccc2CCN1CCN1CC[C@H](Oc2ccncc2)C1` [Example 30, (S)-2-(2-(3-(pyridin-4-yloxy)pyrrolidin-1-yl)ethyl)-3,4-dihydroisoquinolin-1(2H)-one], the IC50 is greater than 16700 nM.

As to `OC1(CN2CCC[C@@H](Oc3ccc(F)cc3)C2)COCc2ccccc21` (stereo partly drawn) [Example 258, 4-(((R)-3-(4-fluorophenoxy)piperidin-1-yl)methyl)isochroman-4-ol], the IC50 came to 1500 nM.

On to `OC(COC1CCCCC1)CN1CCC2(CCCN(c3ccccc3)C2)C1` (stereo not drawn) [Example 351, 1-(cyclohexyloxy)-3-(7-phenyl-2,7-diazaspiro[4.5]decan-2-yl)propan-2-ol], for which the IC50 is greater than 16700 nM.

In the case of `OC(COC1CCCCC1)CN1CCC2(CC1)CCN(c1ccccc1)C2` (stereo not drawn) [Example 354, 1-(cyclohexyloxy)-3-(2-phenyl-2,8-diazaspiro[4.5]decan-8-yl)propan-2-ol], the IC50 turned out to be 1940 nM.

Take `COc1ccccc1OC1CCN(CC2CCc3cc(C#N)ccc32)CC1` (stereo not drawn) [Example 99, 1-((4-(2-methoxyphenoxy)piperidin-1-yl)methyl)-2,3-dihydro-1H-indene-5-carbonitrile]: the IC50 stood at 450 nM.

Turning to `Fc1cccc2c1C(CN1CCC(Oc3ccncc3)CC1)CC2` (stereo not drawn) [Example 118, 4-((1-((7-fluoro-2,3-dihydro-1H-inden-1-yl)methyl)piperidin-4-yl)oxy)pyridine], the IC50 came to 1780 nM.
